# Measured values published in US20030147850A1 (priority 2002, published 2003).
# Tests used:
# [1] = system: vesicular stomatitis virus (VSV)
# [2] = system: erythroleukemia tumor cells; set-up: species or system C57BL male mice; details: mouse, in vivo
# P388 tumor cells = system: P388 tumor cells; set-up: species or system DBA/BALB(F1) male mice; details: mouse, in vivo, ip, 5 mg/kg
substance,measurement,setting,value
Disodium succinate hexahydrate,protection of cells against virus-induced cytopathology,[1],no effect
Recombinant human interferon-alpha2b [IFN],Tumor mass,[2],354 ± 16 mg
same,Tumor mass,P388 tumor cells,4800 ± 500 mg
